Counter-ions that a name gives are not always drawn.

The subject of the first series is Caco 2 cells. Briefly: Caco 2 model (transport across monolayers, absorbed fraction). It counts as in vitro ADME. The settings on record: Caco 2 monolayers, apical to basolateral, assessed from Papp via calibration curve. As for the experimental part:
The Caco 2 cell line was obtained from the American Type Culture Collection (ATCC) and kept in Dulbecco's Modified Eagle Medium (high proportion of glucose), supplemented with non-essential amino acids, L-glutamine, penicillin/streptomycin, and 10% strength fetal calf serum, in an incubator under a 10% CO2 atmosphere at 95% relative atmospheric humidity and at 37° C. The cells were grown in cell culture flasks (175 cm^2). For the transport studies, the Caco 2 cells were inoculated onto polycarbonate cell culture inserts (COSTAR TRANSWELLS®, pore size: 3 μm, surface: 4.71 cm^2) at a cell density of 6.5×10^4 cells/cm^2 and incubated in six-well culture trays, changing the medium after four and eight days and then every other day. 21- to 25-day-old monolayers were used for the experiments.
In each test series, a 21-day-old monolayer was tested for its properties using ^3H-dextrane as permeability marker. The value of the transfer rate (cumulative) after 120 min had to be in the range of 2%.
The growth medium was removed from the apical and the basolateral side and the monolayers were then rinsed with the transport buffer (Hank's balanced salt solution pH 7.8; contains 2.8 g/l of glucose), and the cells were equilibrated at 37° C. under a 10% CO2 atmosphere for 15 min. The HBSS buffer is then removed.
The test compounds were dissolved in a mixture of HBSS buffer and DMSO and added to the apical buffer, giving a 1% strength (v/v) DMSO solution. The test concentration for the first experiment was 1 mM, that for the second experiment was 100 μM. The experiments were carried out at 37° C. and started by adding 1.5 ml of test solution on the donor side (apical). Transport buffer without compound was added to the recipient side (basolateral, 2.5 ml). […] Apical samples were taken at the start and at the end (120 min), so that the recovery rate of the compounds could be determined using these concentrations and the cumulative basolateral concentration. The compounds were analyzed by HPLC.
The apparent permeability coefficient (Papp) is calculated using the following equation: [formula]
in which dc/dt denotes the flow through the monolayer (μg of compound/(ml×s)), V denotes the liquid volume in the collection chamber (ml), A denotes the surface area of the monolayer (cm^2) and c0 denotes the initial concentration (μg of compound/ml) in the donor chamber. The flow through the monolayer was calculated from the cumulative basolateral concentration at the corresponding point of time using the initially linear data curve (linear up to 60 min). All determinations were carried out in three replications, so that the calculated Papp value is the mean of three measurements. […]
For `Cl.Fc1cccc(CN[C@@H]2C[C@@H]3C[C@H]2[C@@H]2CCC[C@H]32)c1` [Example 10, (exo/endo)-(3-fluorobenzyl)(octahydro-4,7-methanoinden-5-yl)amine hydrochloride], the Absorbed fraction is given as 100%.

Molecule `C/C(=C\c1ccc(C)cc1/C=C(\C)C(=O)N=C(N)N)C(=O)N=C(N)N.Cl.Cl` [S 3226, reference compound] returned an Absorbed fraction of under 5%.

The molecule `C/C(=C\c1cccc(/C=C(\C)C(=O)N=C(N)N)c1)C(=O)N=C(N)N.Cl.Cl` [S 2120, reference compound] registered an Absorbed fraction of under 1%.

Test system in a further series: not given
Test: not given
Conditions: not given
For orientation: melting point means the temperature, or range, at which the solid turns liquid. `COCCOc1cccc(CN[C@@H]2C[C@@H]3C[C@H]2[C@@H]2CCC[C@H]32)c1.Cl` returned a melting point of 134 °C.

Turning to `CN(C)c1cccc(CN[C@@H]2C[C@@H]3C[C@H]2[C@@H]2CCC[C@H]32)c1.Cl`, the melting point was 166 to 170 °C (dec.).

`O=C(O)c1cccc(CN[C@@H]2C[C@@H]3C[C@H]2[C@@H]2CCC[C@H]32)c1` [Example 14, (exo/endo)-3-[(octahydro-4,7-methanoinden-5-ylamino)-methyl]benzoic acid] displayed a melting point of 258 to 261 °C.

Molecule `COc1cccc(CCN[C@@H]2C[C@@H]3C[C@H]2[C@@H]2CCC[C@H]32)c1.Cl` showed a melting point of 222 to 225 °C.

Molecule `Brc1cccc(CN[C@@H]2C[C@@H]3C[C@H]2[C@@H]2CCC[C@H]32)c1.Cl` returned a melting point of 248 °C.

With `Cl.Ic1cccc(CN[C@@H]2C[C@@H]3C[C@H]2[C@@H]2CCC[C@H]32)c1`, the melting point was 220 to 224 °C (dec.).

For the molecule `COc1cccc(CCCN[C@@H]2C[C@@H]3C[C@H]2[C@@H]2CCC[C@H]32)c1.Cl`, the melting point was in the range of 186 to 188 °C.

As for `COc1cccc(CN[C@@H]2C[C@@H]3C[C@H]2[C@@H]2CCCC[C@H]32)c1.Cl`, the melting point lay within 234 to 236 °C.

In the next series the target is T1, Rat NHE3 (Rattus norvegicus, UniProt P26433).
T1 construct: expressed in transfected cells
T1 sequence (P26433 29-831): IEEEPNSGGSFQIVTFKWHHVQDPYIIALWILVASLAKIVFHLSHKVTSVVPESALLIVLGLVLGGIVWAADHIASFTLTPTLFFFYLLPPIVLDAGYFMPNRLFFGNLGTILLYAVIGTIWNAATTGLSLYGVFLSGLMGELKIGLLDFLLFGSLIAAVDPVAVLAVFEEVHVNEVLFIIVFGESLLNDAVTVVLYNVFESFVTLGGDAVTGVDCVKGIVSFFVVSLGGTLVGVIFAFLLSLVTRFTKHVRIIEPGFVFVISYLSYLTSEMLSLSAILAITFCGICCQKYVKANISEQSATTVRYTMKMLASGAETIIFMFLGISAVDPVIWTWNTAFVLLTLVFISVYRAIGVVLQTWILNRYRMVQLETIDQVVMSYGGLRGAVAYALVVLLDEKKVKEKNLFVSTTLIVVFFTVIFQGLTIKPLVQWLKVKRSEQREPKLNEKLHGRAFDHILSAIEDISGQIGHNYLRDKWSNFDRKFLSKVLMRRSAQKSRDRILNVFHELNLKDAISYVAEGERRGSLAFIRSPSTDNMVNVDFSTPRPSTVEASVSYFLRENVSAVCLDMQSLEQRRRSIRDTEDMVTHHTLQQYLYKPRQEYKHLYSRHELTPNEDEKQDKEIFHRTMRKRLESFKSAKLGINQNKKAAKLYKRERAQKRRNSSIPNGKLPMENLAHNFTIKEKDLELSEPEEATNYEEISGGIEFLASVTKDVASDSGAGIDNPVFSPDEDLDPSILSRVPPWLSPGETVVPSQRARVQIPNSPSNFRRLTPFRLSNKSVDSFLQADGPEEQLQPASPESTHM
Briefly: NHE activity measurement: pHi recovery after acid load in transfected LAP1 cells. It is filed as cell-based. The following applies: pH recovery after acid load, 3 minutes. An excerpt: Most molecular biology techniques follow protocols from the works “Current Protocols in Molecular Biology (eds. Ausubel, F. M., Brent, R., Kingston, R. E., Moore, D. D., Seidman, J. G., Smith, J. A. and Struhl, K.; John Wiley & Sons)” or: “Molecular Cloning: A Laboratory Manual (Sambrock, J., Fritsch, E. F. and Maniatis, T.; Cold Spring Harbor Laboratory Press (1989))”. In our studies, stable transfected cell lines were produced which in each case express one of the following NHE subtypes: NHE1 of man (Sardet et al. Cell 56, 271-280 (1989)), NHE2 of the rabbit (Tse et al. J. Biol. Chem. 268, 11917-11924 (1993)), NHE3 from humans (Brant et al. Am. J. Physiol. 269 (Cell Physiol. 38), C198-C206 (1995)) or NHE3 of the rat (Orlowski et al.; J. Biol. Chem. 267, 9331-9339 (1992)).
After adding suitable linker sequences, the cDNA clones of the respective NHE subtypes obtained by Prof. Pouyssegur were cloned into the expression plasmid pMAMneo (obtainable, for example, via CLONTECH, Heidelberg) such that the Nhel restriction endonuclease recognition sequence of the plasmid is approximately 20-100 base pairs before the start codon of the respective NHE subtype and the entire coding sequence is present in the construct. In the human NHE3 obtained from human kidney mRNA via RT-PCR, the RT-PCR primer were selected such that the resulting cDNA band had terminal restriction sites which matched pMAMneo.
Using the so-called “calcium phosphate method” (described in Chapter 9.1 of “Current Protocols in Molecular Biology”), the NHE-deficient cell line LAP1 (Franchi et al.; Proc. Natl. Acad. Sci. USA 83, 9388-9392 (1986)) was transfected with the plasmids which contain the respective coding sequences of the NHE subtypes. After selection of transfected cells by means of growth in G418-containing medium (only cells which as a result of transfection contain a neogene can survive under these conditions), a selection was made for functional NHE expression. To do this, the “Acid Load” technique described by Sardet was used (Sardet et al.; Cell 56, 271-280 (1989)). Cells which express a functioning NHE subtype can also compensate in the absence of CO2 and HCO3- for the acidification carried out during this test, but untransfected LAP1 cells cannot. After repetition of the “Acid Load” selection several times, the surviving cells were inoculated into microtiter plates such that statistically there should have been one cell per well. Under the microscope, a check was made after approximately 10 days as to how many colonies were growing per well. Cell populations of individual colonies were then investigated with respect to their viability after “Acid Load” using the XTT proliferation kit (Boehringer Mannheim). The best cell lines were used for the further tests, and to avoid a loss of the transfected sequence were cultured under continuous selection pressure in G418-containing medium.
To determine IC50-values for the inhibition of the individual NHE subtypes by specific substances, a test developed by S. Faber (Faber et al.; Cell. Physiol. Biochem. 6, 39-49 (1996)), which is based on the “Acid Load” technique, was slightly modified.
In this test, the recovery of the intracellular pH (pHi) after an acidification was determined, which commences with functioning NHE even under bicarbonate-free conditions. To do this, the pHi was determined using the pH-sensitive fluorescent dye BCECF (Calbiochem, the precursor BCECF-AM is employed). The cells were first loaded with BCECF. The BCECF fluorescence was determined in a “Ratio Fluorescence Spectrometer” (Photon Technology International, South Brunswick, N.J., USA) at excitation wavelengths of 505 and 440 nm and an emission wavelength of 535 nm and converted into the pHi by means of calibration curves. […]
As a reminder, the IC50 is the midpoint of a concentration-inhibition curve. In turn, `COc1cccc(CN[C@@H]2CC3CC2[C@@H]2CCC[C@H]32)c1` (stereo partly drawn) [Example 7, (endo/exo)-(3-methoxybenzyl)(octahydro-4,7-methanoinden-5-yl)amine hydrochloride] showed an IC50 of 31000 nM.

For `Cl.Fc1cccc(CN[C@@H]2C[C@@H]3C[C@H]2[C@@H]2CCC[C@H]32)c1` [Example 10, (exo/endo)-(3-fluorobenzyl)(octahydro-4,7-methanoinden-5-yl)amine hydrochloride], the midpoint of inhibition, the IC50, lay at 900 nM. Compared with the last molecule, the IC50 is about 34-fold lower.

`COc1cccc(CN[C@@H]2C[C@@H]3C[C@H]2[C@H]2CCC[C@@H]32)c1` (relative stereo) [Example 9, (exo/exo)-(3-methoxybenzyl)(octahydro-4,7-methanoinden-5-yl)amine hydrochloride] displayed a half-inhibitory concentration (IC50) of 5000 nM.

`COc1cccc(CN[C@@H]2CC3CC2[C@H]2CCC[C@@H]32)c1` (stereo partly drawn) [Example 8, (endo/endo)-(3-methoxybenzyl)(octahydro-4,7-methanoinden-5-yl)amine hydrochloride]: the IC50 was found to be 70000 nM.

The series is the same for the next values; noted with them: pH recovery after acid load, 3 minutes; hydrochloride.
Regarding `COc1cccc(CNC2CC3CC2C2CCCC32)c1` (single isomer, unassigned; (-)) [(−)−6, (−)-(exo/endo)-(3-methoxybenzyl)(octahydro-4,7-methanoinden-5-yl)amine hydrochloride], the IC50 was 1000 nM.

Molecule `COc1cccc(CNC2CC3CC2C2CCCC32)c1` (single isomer, unassigned; (+)) [(+)−6, (+)-(exo/endo)-(3-methoxybenzyl)(octahydro-4,7-methanoinden-5-yl) amine hydrochloride] had an IC50 of 500 nM. This IC50 is about 2-fold lower than that of the molecule before.

The record behind these values is patent US6825231B2, “Substituted norbornylamino derivatives, processes for their preparation, their use as medicaments or diagnostics, and a medicament comprising them” (Aventis Pharma Deutschland GmbH, priority 1999, dated 2004).
